pIC50: −log10 of the molar value.
Assays:
recombinant human TDP2 = target: T1, recombinant human TDP2 (Homo sapiens, UniProt O95551); test: Recombinant Tdp2 assay (gel-based, 18-mer ssDNA substrate); type: biochemical; details: recombinant human TDP2, 25 pM, 15 min, room temperature; read-out: REC TDP2
T1 sequence (O95551 1-362): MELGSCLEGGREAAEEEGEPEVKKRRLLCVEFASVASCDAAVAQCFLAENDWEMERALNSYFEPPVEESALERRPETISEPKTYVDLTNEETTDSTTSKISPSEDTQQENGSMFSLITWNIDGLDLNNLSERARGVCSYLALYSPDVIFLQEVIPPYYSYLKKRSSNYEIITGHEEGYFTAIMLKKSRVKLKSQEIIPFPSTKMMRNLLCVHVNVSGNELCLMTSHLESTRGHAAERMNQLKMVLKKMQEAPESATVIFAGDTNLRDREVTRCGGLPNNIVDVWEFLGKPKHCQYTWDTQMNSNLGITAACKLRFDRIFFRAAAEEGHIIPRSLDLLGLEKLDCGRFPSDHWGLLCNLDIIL
Method: TDP2 reactions were carried out as described previously (Example 52) with the following modifications. The 18-mer single-stranded oligonucleotide DNA substrate (α^32P-cordycepin-3′-labeled) was incubated at 1 nM with 25 pM recombinant human TDP2 in the absence or presence of inhibitor for 15 min at room temperature in a buffer containing 50 mM Tris-HCl, pH 7.5, 80 mM KCl, 5 mM MgCl2, 0.1 mM EDTA, 1 mM DTT, 40 μg/mL BSA, and 0.01% Tween 20. Reactions were terminated and treated similarly to WCE and recombinant TDP1 reactions (see Examples 52 and 53).
(§1) All compounds were prepared by the methods shown in Examples 1 to 50. Routine changes in starting materials and reaction conditions, readily apparent to those of skill in the art, were used to make the particular compounds disclosed in Table 1. […] A standard Tdp2 inhibition assay, such as the assay of Example 53, is used to determine the IC50's for the compounds. LC methods are given in the General Methods section.

human TDP2 (hTDP2) = target: T2, human TDP2 (hTDP2) (Homo sapiens, UniProt O95551); test: Whole cell extract Tdp2 assay (DT40 TDP1-/- cells complemented with human TDP2); type: biochemical; details: whole cell extract 4 μg/mL of DT40 cells expressing hTDP2, 15 min, room temperature; read-out: WCE hTDP2
T2 construct: expressed in transfected cells; host or cells: DT40 (chicken) TDP1-/- knockout cells complemented with human TDP2; whole cell extract
T2 sequence (O95551 1-362): T1 sequence (O95551 1-362)
Method: DT40 knockout cells (1×10^7) for Tdp1 (TDP1−/−) complemented with human TDP2 (hTDP2) were collected, washed, and centrifuged. Cell pellets were then lysed and stored similarly to hTDP1 extracts (see above). The 18-mer single-stranded oligonucleotide was incubated at 1 nM with 4 μg/mL of whole cell extracts in the absence or presence of inhibitor for 15 min at room temperature in the WCE buffer containing 50 mM Tris HCl, pH 7.5, 80 mM KCl, 5 mM MgCl2, 2 mM EDTA, 1 mM DTT, 40 μg/mL BSA, and 0.01% Tween-20. Reactions were terminated by the addition of 1 volume of gel loading buffer [99.5% (v/v) formamide, 5 mM EDTA, 0.01% (w/v) xylene cyanol, and 0.01% (w/v) bromophenol blue]. Samples were then treated and run similarly to the hTDP1 whole cell extract (Example 51).
as §1

| Structure (SMILES) | pIC50 (recombinant human TDP2) | pIC50 (human TDP2 (hTDP2)) |
| --- | --- | --- |
| CCOC(=O)c1c(C)oc2c1C(=O)c1cccnc1C2=O [Compound 1, Ethyl 2-methyl-4,9-dioxo-4,9-dihydrofuro[3,2-g]quinoline-3-carboxylate] | 3.95 to 4.43 | 3.95 to 4.43 |
| CCOC(=O)c1c(C)oc2c1C(=O)c1ncccc1C2=O [Compound 2, Ethyl 2-methyl-4,9-dioxo-4,9-dihydrofuro[2,3-g]quinoline-3-carboxylate] | 4.92 to 6.00 | 4.43 to 4.92 |
| CCOC(=O)c1c(C)oc2c1C(=O)c1ccccc1C2=O [Compound 3, Ethyl 2-methyl-4,9-dioxo-4,9-dihydronaphtho[2,3-b]furan-3-carboxylate] | 3.95 to 4.43 | – |
| CCOC(=O)C1=C(C)C(C(=O)OCC)C2=C1C(=O)c1ncccc1C2=O (stereo not drawn) [Compound 4] | < 3.95 | – |
| CCOC(=O)c1c2c(n(C)c1C)C(=O)c1ncccc1C2=O [Compound 5] | < 3.95 | – |
| CNC1=C(Cl)C(=O)c2ncccc2C1=O [Compound 6] | < 3.95 | – |
| Cc1oc2c(c1C(=O)O)C(=O)c1ncccc1C2=O [Compound 7, 2-methyl-4,9-dioxo-4,9-dihydrofuro[2,3-g]quinoline-3-carboxylic acid] | 3.95 to 4.43 | 3.95 to 4.43 |
| CC(=O)c1c(C)oc2c1C(=O)c1cccnc1C2=O [Compound 8, 3-acetyl-2-methylfuro[3,2-g]quinoline-4,9-dione] | < 3.95 | – |
| CC(=O)c1c(C)oc2c1C(=O)c1ncccc1C2=O [Compound 9, 3-acetyl-2-methylfuro[2,3-g]quinoline-4,9-dione] | 3.95 to 4.43 | 3.95 to 4.43 |
| Cc1oc2c(c1C(=O)OCCO)C(=O)c1ncccc1C2=O [Compound 10, 2-hydroxyethyl-2-methyl-4,9-dioxo-4,9-dihydrofuro[2,3-g]quinoline-3-carboxylate] | 4.43 to 4.92 | 4.92 to 6.00 |
| Cc1oc2c(c1C(=O)OCCCO)C(=O)c1ncccc1C2=O [Compound 11] | 4.43 to 4.92 | 4.92 to 6.00 |
| Cc1oc2c(c1C(=O)Oc1cccc(O)c1)C(=O)c1ncccc1C2=O [Compound 12] | 4.43 to 4.92 | 4.92 to 6.00 |
| Cc1oc2c(c1C(=O)Oc1ccccc1O)C(=O)c1ncccc1C2=O [Compound 13] | 4.43 to 4.92 | 4.92 to 6.00 |
| Cc1oc2c(c1C(=O)Oc1ccccc1)C(=O)c1ncccc1C2=O [Compound 14] | 4.43 to 4.92 | 4.92 to 6.00 |
| Cc1oc2c(c1C(=O)OCC(O)CO)C(=O)c1ncccc1C2=O (stereo not drawn) [Compound 15] | 4.43 to 4.92 | 4.92 to 6.00 |
| Cc1oc2c(c1C(=O)Nc1ccccc1)C(=O)c1ncccc1C2=O [Compound 16] | < 3.95 | – |
| Cc1oc2c(c1C(=O)Nc1cccc(Cl)c1)C(=O)c1ncccc1C2=O [Compound 17] | < 3.95 | – |
| Cc1oc2c(c1C(=O)Nc1ccccc1O)C(=O)c1ncccc1C2=O [Compound 18] | < 3.95 | – |
| COc1ccc(NC(=O)c2c(C)oc3c2C(=O)c2ncccc2C3=O)cc1 [Compound 19] | < 3.95 | – |

| Structure (SMILES) | pIC50 (recombinant human TDP2) | pIC50 (human TDP2 (hTDP2)) |
| --- | --- | --- |
| CCNC(=O)c1c(C)oc2c1C(=O)c1ncccc1C2=O [Compound 20] | < 3.95 | – |
| Cc1oc2c(c1C(=O)Nc1cccc(O)c1)C(=O)c1ncccc1C2=O [Compound 21] | < 3.95 | – |
| COP(=O)(CCOC(=O)c1c(C)oc2c1C(=O)c1ncccc1C2=O)OC [Compound 22] | 4.92 to 6.00 | 4.43 to 4.92 |
| Cc1oc2c(c1C(=O)Oc1cccc(Cl)c1)C(=O)c1ncccc1C2=O [Compound 23] | 4.43 to 4.92 | 4.92 to 6.00 |
| Cc1oc2c(c1C(=O)Oc1ccccc1Cl)C(=O)c1ncccc1C2=O [Compound 24] | 4.92 to 6.00 | 4.43 to 4.92 |
| Cc1oc2c(c1C(=O)Oc1ccc3ccccc3c1)C(=O)c1ncccc1C2=O [Compound 25] | < 3.95 | – |
| Cc1oc2c(c1C(=O)Oc1cccc(C#N)c1)C(=O)c1ncccc1C2=O [Compound 26] | 4.92 to 6.00 | 4.92 to 6.00 |
| Cc1oc2c(c1C(=O)Oc1ccc(Cl)cc1)C(=O)c1ncccc1C2=O [Compound 27] | 4.92 to 6.00 | 4.92 to 6.00 |
| Cc1oc2c(c1C(=O)Oc1cccnc1)C(=O)c1ncccc1C2=O [Compound 28] | 4.92 to 6.00 | 4.92 to 6.00 |
| CCOC(=O)c1c(-c2ccccc2)oc2c1C(=O)c1cccnc1C2=O [Compound 29, Ethyl 4,9-dioxo-2-phenyl-4,9-dihydrofuro[3,2-g]quinoline-3-carboxylate] | 3.95 to 4.43 | 4.43 to 4.92 |
| CCOC(=O)c1c(-c2ccccc2)oc2c1C(=O)c1ncccc1C2=O [Compound 30, Ethyl 4,9-dioxo-2-phenyl-4,9-dihydrofuro[2,3-g]quinoline-3-carboxylate] | 4.43 to 4.92 | 4.43 to 4.92 |
| Cc1oc2c(c1C(=O)Oc1ccc(Br)cc1)C(=O)c1ncccc1C2=O [Compound 31] | 4.43 to 4.92 | 4.43 to 4.92 |
| C#Cc1cccc(OC(=O)c2c(C)oc3c2C(=O)c2ncccc2C3=O)c1 [Compound 32] | 3.95 to 4.43 | 4.43 to 4.92 |
| Cc1oc2c(c1C(=O)Oc1cccc(-c3cn(CCC(=O)O)nn3)c1)C(=O)c1ncccc1C2=O [Compound 33] | 4.43 to 4.92 | 4.43 to 4.92 |
| Cc1oc2c(c1C(=O)Oc1cccc(-c3cn(CCCO)nn3)c1)C(=O)c1ncccc1C2=O [Compound 34] | 4.92 to 6.00 | 4.92 to 6.00 |
| Cc1oc2c(c1C(=O)OCCCCO)C(=O)c1ncccc1C2=O [Compound 35] | 4.43 to 4.92 | 4.92 to 6.00 |
| Cc1oc2c(c1C(=O)OCCOCCO)C(=O)c1ncccc1C2=O [Compound 36] | 4.43 to 4.92 | 4.43 to 4.92 |
| Cc1oc2c(c1C(=O)OC[C@@H](O)CO)C(=O)c1ncccc1C2=O [Compound 37] | 4.92 to 6.00 | 4.43 to 4.92 |
| Cc1oc2c(c1C(=O)OC[C@H]1COC(C)(C)O1)C(=O)c1ncccc1C2=O [Compound 38] | 4.92 to 6.00 | 4.92 to 6.00 |

| Structure (SMILES) | pIC50 (recombinant human TDP2) | pIC50 (human TDP2 (hTDP2)) |
| --- | --- | --- |
| Cc1oc2c(c1C(=O)OCCc1ccccc1)C(=O)c1ncccc1C2=O [Compound 40] | 3.95 to 4.43 | 4.43 to 4.92 |
| COC(=O)c1c(C)oc2c1C(=O)c1ncccc1C2=O [Compound 41] | 4.43 to 4.92 | 4.92 to 6.00 |
| Cc1oc2c(c1C(=O)OCCc1cn(CCC(=O)O)nn1)C(=O)c1ncccc1C2=O [Compound 42] | 4.43 to 4.92 | 4.43 to 4.92 |
| C#CCCOC(=O)c1c(C)oc2c1C(=O)c1ncccc1C2=O [Compound 43] | 4.43 to 4.92 | 4.43 to 4.92 |
| Cc1oc2c(c1C(=O)Oc1ccc(S(C)(=O)=O)cc1)C(=O)c1ncccc1C2=O [Compound 44] | 4.43 to 4.92 | 4.43 to 4.92 |
| O=C(Oc1ccc(OCCCN2CCOCC2)cc1)c1coc2c1C(=O)c1ncccc1C2=O [Compound 59] | 3.95 to 4.43 | 4.92 to 6.00 |
| Cc1oc2c(c1C(=O)Oc1ccccc1OCCCN1CCOCC1)C(=O)c1ncccc1C2=O [Compound 60] | 3.95 to 4.43 | 4.92 to 6.00 |
| CC(=O)N1CCN(c2ccc(OC(=O)c3c(C)oc4c3C(=O)c3ncccc3C4=O)cc2)CC1 [Compound 61] | 3.95 to 4.43 | 4.92 to 6.00 |
| CCOC(=O)c1c(CC)oc2c1C(=O)c1ncccc1C2=O [Compound 65] | 3.95 to 4.43 | – |
| CCOC(=O)c1c(CC)oc2c1C(=O)c1ncccc1C2=O [Compound 66] | 4.43 to 4.92 | – |
| C=CC(=O)Nc1cccc(OC(=O)c2c(C)oc3c2C(=O)c2ncccc2C3=O)c1 [Compound 67] | 4.43 to 4.92 | – |
| C=CC(=O)Nc1ccc(OC(=O)c2c(C)oc3c2C(=O)c2ncccc2C3=O)cc1 [Compound 68] | 4.43 to 4.92 | – |
| CC(C)(C)OC(=O)Nc1ccc(OC(=O)c2coc3c2C(=O)c2ncccc2C3=O)cc1 [Compound 69] | 4.43 to 4.92 | – |
| Cc1oc2c(c1C(=O)Oc1ccc(N)cc1)C(=O)c1ncccc1C2=O [Compound 70] | 4.92 to 6.00 | – |
| CCOC(=O)c1c(CN2CCN(C(C)=O)CC2)oc2c1C(=O)c1ncccc1C2=O [Compound 71] | 4.43 to 4.92 | – |
| CCOC(=O)c1c(CN2CCOCC2)oc2c1C(=O)c1ncccc1C2=O [Compound 72] | 4.92 to 6.00 | – |
| CCOC(=O)c1noc2c1C(=O)c1ncccc1C2=O [Compound 73] | ≥ 6.00 | – |
| CCOC(=O)c1c(C(Br)Br)oc2c1C(=O)c1ncccc1C2=O [Compound 74] | 4.43 to 4.92 | – |
